Where two headings read alike, the source gives them in different places.
Legend:
Assay in all cases: Cytotoxicity (SRB) assay with CalcuSyn combination analysis
Format in all cases: cell-based
ES2 cells = conditions: Homo sapiens, ES2 parental, read-out: Dm
Procedure: Cytotoxicity assay. Cells were seeded in 96-well plates, with 2000 cells in 100 μL/well, and cultured for 24 h. The cells were treated with serial dilutions of drugs or without drug for an additional 72 h. Cell number was determined using a sulforhodamine B (SRB) assay, as previously described^23. Briefly, cells were fixed with 20% trichloroacetic acid (TCA), air-dried, and stained with 0.4% SRB dissolved in 1% acetic acid. After washing, protein-bound dye was solubilized with 10 mM unbuffered Tris-base solution (pH 10.5) and detected at 510 nm using a microplate reader. Percentage of cell-growth was calculated using the following formula: % cell growth=[(Absorbance sample)/(Absorbance untreated)]×100 […] Datasets from at least three independent experiments were combined, and each table cell contains the mean value±SD. SCR, ES2-shScrambled. N/A, not applicable. Statistical analysis was carried out by one-way ANOVA with Bonferroni's post-hoc test, and differences were considered significant at **P<0.01 and ***P<0.001 as compared to the ES2 parental group with the same drug treatment. […] CIwt value was calculated using the formula: […] Datasets from at least three independent experiments were combined, and each table cell contains the mean value±SD. Teri, teriflunomide. SCR, ES2-shScrambled. N/A, not applicable. Statistical analysis was carried out by one-way ANOVA with Bonferroni's post-hoc test, and differences were considered significant at ***P<0.001 as compared to the ES2 parental group with the same drug treatment.

ES2 shARID1A (a) cells = conditions: Homo sapiens, read-out: Dm
Procedure: (§1) Short Hairpin RNA (shRNA)-Mediated Knockdown and Expression of ARID1A in ovarian and endometrial carcinoma cells. shRNA lentiviral supernatants were produced using standard protocols, as previously described^8. Vectors were transfected into HEK293FT cells using X-tremeGENE 9 DNA Transfection Reagent (from Roche). Retroviral supernatants isolated at 48 h were diluted 1:1 in culture medium and used to infect ARID1A-wildtype ES2 and KLE cell lines. Stably transfected subclones were expanded using puromycin (from Dot Scientific) drug selection. For expression of ARID1A in the ARID1A-mutant HEC-1-A cell line, pCIN4-HA-ARID1A was transfected using X-tremeGENE 9 DNA Transfection Reagent (from Roche), followed by selection with G418 (from Gibco). For expression of ARID1A in the ARID1A-mutant SKOV3 and OVISE cell lines, V5/His-tagged pLenti-puro-LacZ and pLenti-puro-ARID1A were transfected using lentivirus. Lentivirus was produced using HEK293FT cells with the second-generation packaging system pSPAX2 (Addgene plasmid) and pMD2.G (Addgene plasmid). Stably transfected subclones were expanded using puromycin and blasticidin (Gibco) drug selection.
(§2) Cytotoxicity assay. Cells were seeded in 96-well plates, with 2000 cells in 100 μL/well, and cultured for 24 h. The cells were treated with serial dilutions of drugs or without drug for an additional 72 h. Cell number was determined using a sulforhodamine B (SRB) assay, as previously described^23. Briefly, cells were fixed with 20% trichloroacetic acid (TCA), air-dried, and stained with 0.4% SRB dissolved in 1% acetic acid. After washing, protein-bound dye was solubilized with 10 mM unbuffered Tris-base solution (pH 10.5) and detected at 510 nm using a microplate reader. Percentage of cell-growth was calculated using the following formula: % cell growth=[(Absorbance sample)/(Absorbance untreated)]×100
(§3) Using CalcuSyn software (Biosoft), dose-effect curves were generated, and drug concentrations corresponding to a 50% decrease in cell number (IC50) were determined.
(§4) Drug concentrations corresponding to a median effect (Dm) are shown for each treatment; teriflunomide concentration is shown for combination (Combo) treatment at a 10:1 fixed molar ratio of two drugs, teriflunomide and AZD6738. […] Datasets from at least three independent experiments were combined, and each table cell contains the mean value±SD. SCR, ES2-shScrambled. N/A, not applicable. Statistical analysis was carried out by one-way ANOVA with Bonferroni's post-hoc test, and differences were considered significant at **P<0.01 and ***P<0.001 as compared to the ES2 parental group with the same drug treatment.
(§5) Drug concentrations (in μM for teriflunomide, in nM for […]) corresponding to median effect (Dm) are shown for each treatment; teriflunomide concentration is shown for combination (Combo) treatment at a 200:1 fixed molar ratio of the two drugs, teriflunomide and VX-970. […] CIwt<0.8, =0.8 to 1.2, and >1.2 indicates synergism, an additive effect, and antagonism, respectively. CIwt value was calculated using the formula: CIwt=(ED50+2ED75+3ED90)/6. Datasets from at least three independent experiments were combined, and each table cell contains the mean value±SD. Teri, teriflunomide. SCR, ES2-shScrambled. N/A, not applicable. Statistical analysis was carried out by one-way ANOVA with Bonferroni's post-hoc test, and differences were considered significant at ***P<0.001 as compared to the ES2 parental group with the same drug treatment.

ES2 shARID1A (b) cells = conditions: Homo sapiens, read-out: Dm
Procedure: as §1, §2, §3, §4, §5

[1] = system: ES2-shScrambled (SCR) cells; conditions: Homo sapiens, read-out: Dm
Procedure: as §1, §2, §3, §4, §5

A2780 cells = conditions: Homo sapiens, Table 4, single drug, median effect, read-out: Dm
Procedure: as §2, §3
(§6) Drug concentrations corresponding to a median effect (Dm) are shown for each treatment; teriflunomide concentration is shown for a combination (Combo) treatment at a 10:1 fixed molar ratio of two drugs, teriflunomide and AZD6738. […] CIwt<0.8, =0.8 to 1.2, and >1.2 indicate synergism, an additive effect, and antagonism, respectively. A CIwt value was calculated using the formula: CIwt=(ED50+2ED75+3ED90)/6. Datasets from at least three independent experiments were combined, and each table cell contains the mean value±SD.

HEC-1A cells = conditions: Homo sapiens, Table 6, single drug, median effect, read-out: Dm
Procedure: as §2, §3
as §6, with “The drug” for “Drug”, “for” for “for a”, “indicates” for “indicate”

JHOC-5 cells = conditions: Homo sapiens, Table 5, single drug, median effect, read-out: Dm
Procedure: as §2, §3
as §6, with “The drug” for “Drug”, “for” for “for a”, “indicates” for “indicate”

[2] = ES-2, Table 1, single drug, median effect
[3] = Table 1, single drug, median effect

SMILES | IC50 (ES2 cells; [2]) [µM] | IC50 (ES2 shARID1A (a) cells; [3]) [µM] | IC50 (ES2 shARID1A (b) cells; [3]) [µM] | IC50 [1, 3] [µM] | IC50 (A2780 cells) [µM] | IC50 (HEC-1A cells) [µM] | IC50 (JHOC-5 cells) [µM] | IC50 (ES2 cells; ES-2, Table 2, teriflunomide alone) [µM] | IC50 (ES2 shARID1A (a) cells; Table 2, teriflunomide alone) [µM] | IC50 (ES2 shARID1A (b) cells; Table 2, teriflunomide alone) [µM] | IC50 ([1]; Table 2, teriflunomide alone) [µM]
C[C@@H]1COCCN1c1cc(C2([S@](C)(=N)=O)CC2)nc(-c2cc[nH]c3nccc2-3)n1 [AZD6738] | 1.23 ± 0.16 | 0.2 ± 0.01 | 0.24 ± 0.03 | 1.18 ± 0.17 | 5.54 ± 1.06 | 4.47 ± 0.45 | 2.91 ± 0.76 | – | – | – | –
C/C(O)=C(\C#N)C(=O)Nc1ccc(C(F)(F)F)cc1 [Teriflunomide, teriflunomide] | 26.4 ± 2.18 | 17.9 ± 1.32 | 16.8 ± 0.92 | 28.2 ± 1.59 | 18.9 ± 1.39 | 50.5 ± 4.99 | 25.2 ± 1.85 | 29.1 ± 0.54 | 15.6 ± 1.79 | 15.5 ± 3.11 | 26.7 ± 1.26

Reference: patent publication US11801232B2, “Targeting of ARID1A-deficient cancers by inhibiting de novo pyrimidine synthesis pathway” (YALE UNIVERSITY, priority 2019, dated 2023)
